Data as given in the supplement of paper PMC11208160.

Test: recombinant UMI read abundance after kanamycin selection (control-corrected) (log10(CPM+1)); higher = more efficient recombination; extreme values may be limits of the assay; sequences stand for … in AGTGCAGAGAAAATCGGCCAGTTTTCTCTGCCTGCAGTCCGCATGCCGTGGGACCCCTTGGGTTCTAACCTGTTGCCTAGATTTATGCAGCGGACTGCCTTTCTCCCAAAGTGATAAACCGG…AGGTTGGTTTCACT; site = the 11-nt donor
How it was run: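 Pooled Escherichia coli screen of donor and donor-binding-loop pairs for the IS621 bridge recombinase. Each pair sits with a 12-nt UMI on a plasmid carrying a promoterless kanamycin gene. The library was co-electroporated with a target plasmid encoding a fixed target and T7-inducible recombinase, then plated with IPTG (0.07 mM) plus kanamycin, or unselected, each in two replicates. Recombinant UMIs were PCR-amplified across the donor–target junction and sequenced. Counts became CPM, averaged over replicates, scaled by control-derived factors and reported as log10(CPM+1).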
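Also: IS621 bridge recombinase in Escherichia coli cells against a fixed T5 target plasmid.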

Sequence | recombinant UMI read abundance (log10)
GAGCATGCATGGACCGGTTTTCCCGGTAATCCGTATTTGGT (site GTGCATGCTAC) | 0.162
GAGCCGGCATGGACCGGTTTTCCCGGTAATCCGTATTTGGT (site GAGCCGGCTAC) | 0.57
GAGCCTGCATGGACCGGTTTTCCCGGTAATCCGTATTTGGT (site GAGCCTGCTAC) | 0.482
GAGCGTTCATGGACCGGTTTTCCCGGTAATCCGTATTTGCG (site GAGCGTTCTCG) | 1.82
GAGCTAACATGGACCGGTTTTCCCGGTAATCCGTATTTGAT (site GAGCTAACTAT) | 2.46
GAGCTAACATGGACCGGTTTTCCCGGTAATCCGTATTTGAT (site GAGCTCACTAT) | 0.0205
GAGCTAACATGGACCGGTTTTCCCGGTAATCCGTATTTGAT (site GAGCTGACTAT) | 0.034
GAGCTAACATGGACCGGTTTTCCCGGTAATCCGTATTTGAT (site GAGCTTACTAT) | 0.00927
GAGCTCACATGGACCGGTTTTCCCGGTAATCCGTATTTGCT (site GAGCTCACTAA) | 1.28
GAGCTCACATGGACCGGTTTTCCCGGTAATCCGTATTTGCT (site GAGCTCACTAC) | 0.00315
GAGCTCACATGGACCGGTTTTCCCGGTAATCCGTATTTGCT (site GAGCTCACTAG) | 2.24
GAGCTCACATGGACCGGTTTTCCCGGTAATCCGTATTTGCT (site GAGCTCACTAT) | 1.14
GAGCTGACATGGACCGGTTTTCCCGGTAATCCGTATTTGAT (site GAGCTAACTAT) | 2.08
GAGCTGACATGGACCGGTTTTCCCGGTAATCCGTATTTGAT (site GAGCTCACTAT) | 0.0113
GAGCTGACATGGACCGGTTTTCCCGGTAATCCGTATTTGAT (site GAGCTGACTAT) | 2.09
GAGCTGACATGGACCGGTTTTCCCGGTAATCCGTATTTGAT (site GAGCTTACTAT) | 0.154
GAGCTGCCATGGACCGGTTTTCCCGGTAATCCGTATTTGCG (site GAGCTGCCTCG) | 0.232
GAGGAACCATGGACCGGTTTTCCCGGTAATCCGTATTTGTT (site GAGGAACCTAA) | 0
GAGGATTCATGGACCGGTTTTCCCGGTAATCCGTATTTGTT (site GAAGATTCTAA) | 1.46

Sequence | recombinant UMI read abundance (log10)
GAGGATTCATGGACCGGTTTTCCCGGTAATCCGTATTTGTT (site GACGATTCTAA) | 0.365
GAGGATTCATGGACCGGTTTTCCCGGTAATCCGTATTTGTT (site GAGGATTCTAA) | 2.83
GAGGATTCATGGACCGGTTTTCCCGGTAATCCGTATTTGTT (site GATGATTCTAA) | 0.0156
GAGGGGCCATGGACCGGTTTTCCCGGTAATCCGTATTTGGC (site GAGGGGCCTGC) | 0
GAGTACCCATGGACCGGTTTTCCCGGTAATCCGTATTTGTT (site GAGTACCCTAA) | 0.0215
GAGTGCGCATGGACCGGTTTTCCCGGTAATCCGTATTTGTC (site GAGTGCGCTGA) | 2.71
GAGTGGCCATGGACCGGTTTTCCCGGTAATCCGTATTTGCA (site GAATGGCCTTG) | 0
GAGTGGCCATGGACCGGTTTTCCCGGTAATCCGTATTTGCA (site GACTGGCCTTG) | 0
GAGTGGCCATGGACCGGTTTTCCCGGTAATCCGTATTTGCA (site GAGTGGCCTTG) | 0
GAGTGGCCATGGACCGGTTTTCCCGGTAATCCGTATTTGCA (site GATTGGCCTTG) | 0
GAGTTGGCATGGACCGGTTTTCCCGGTAATCCGTATTTGTA (site GAGTTGGCTTA) | 2.18
GATAAGGCATGGACCGGTTTTCCCGGTAATCCGTATTTGCG (site GATAAGGCTCG) | 1.83
GATAAGGCATGGACCGGTTTTCCCGGTAATCCGTATTTGGC (site GATAAGGCTGC) | 1.3
GATATGCCATGGACCGGTTTTCCCGGTAATCCGTATTTGCT (site GATATGCCTAG) | 0
GATCCACCATGGACCGGTTTTCCCGGTAATCCGTATTTGGT (site GATCCACCTAC) | 0.0102
GATCGACCATGGACCGGTTTTCCCGGTAATCCGTATTTGTC (site GATCGACCTGA) | 0
GATCGAGCATGGACCGGTTTTCCCGGTAATCCGTATTTGCA (site GATCGAGCTTG) | 1.04
GATCGAGCATGGACCGGTTTTCCCGGTAATCCGTATTTGCA (site GCTCGAGCTTG) | 1.17
GATCGAGCATGGACCGGTTTTCCCGGTAATCCGTATTTGCA (site GGTCGAGCTTG) | 1.15
